Measured values published in patent US4016258A, “Vasoactive intestinal peptide from fowl” (priority 1975, dated 1977).
Ends that are not written are not given here.

Assays:
Intact anesthetized dogs = test: Intact anesthetized dogs: infusion into one femoral artery, femoral blood flow and aortic blood pressure measured; assay type: in vivo, dog; conditions: for hypotensive effect compared with the porcine peptide: dogs, comparison with porcine vasoactive intestinal peptide
Source text: 1. Intact anesthetized dogs
The peptide was infused into one femoral artery, and the blood flow in that artery, as well as the aortic blood pressure, were continually measured. During the infusion of the peptide, blood pressure fell and blood flow increased, indicating peripheral vasodilation.

rat stomach = test: Isolated smooth-muscle organ strips superfused in series: rat stomach; conditions: rat stomach strip superfused with Krebs solution; often initial brief contraction followed by relaxation
Source text: (§1) 2. Isolated smooth-muscle organs
(§2) Four strips of smooth-muscle organs: rat stomach, guinea pig trachea, rat colon, and guinea pig gallbladder, were placed in series and superfused with warm physiological solution (Krebs), bubbled with 95% O2 and 5% CO2. The organ strips were attached to special transducers which measured their contraction or relaxation.

guinea pig trachea = test: Isolated smooth-muscle organ strips superfused in series: guinea pig trachea
Source text: as §1, §2

rat colon = test: Isolated smooth-muscle organ strips superfused in series: rat colon; conditions: rat colon strip superfused with Krebs solution
Source text: as §1, §2

guinea pig gallbladder = test: Isolated smooth-muscle organ strips superfused in series: guinea pig gallbladder; conditions: guinea pig gallbladder strip superfused with Krebs solution
Source text: as §1, §2

For “HSDAVFTDNYSRFRKQMAVKKYLNSVLT-NH2 [chicken peptide]”, the “aortic blood pressure during infusion” value (Intact anesthetized dogs; anesthetized dogs, infusion into femoral artery) was “fell”, the “blood flow in femoral artery during infusion” value (Intact anesthetized dogs; anesthetized dogs, infusion into femoral artery, indicates peripheral vasodilation) was “increased” and the “hypotensive effect compared with the porcine peptide” value (Intact anesthetized dogs) was “less marked and shorter lasting”. The “hypotensive effect compared with the porcine peptide” value (Intact anesthetized dogs; listed as peptide) was “relatively short duration”, the “effect on stomach strip” value (rat stomach) was “relaxation” and the “relaxation of trachea compared with porcine peptide” value (guinea pig trachea; doses eliciting equal relaxation of stomach, chicken vs porcine peptide) was “many times greater”. The “effect on trachea strip” value (guinea pig trachea; guinea pig trachea strip superfused with Krebs solution) was “relaxation”, the “relaxant potency on guinea pig trachea relative to other smooth muscles tested” value (guinea pig trachea; in comparison with porcine vasoactive intestinal peptide) was “relatively more potent relaxant” and the “effect on colon strip” value (rat colon) was “usually contracted”. The “effects on gallbladder strip” value (guinea pig gallbladder) was “variable”.
